Test results reported in US12479830B2, “Homopiperazinyl and homopiperidinyl quinazolin-4(3H)-one derivatives having multimodal activity against pain” (ESTEVE PHARMACEUTICALS, S.A., priority 2019, dated 2025).

Experiments:
Human σ1 receptor = target: T1, Human σ1 receptor (Homo sapiens, UniProt Q99720); assay: Human σ1 receptor radioligand assay ([3H](+)-pentazocine binding); settings: binding to the σ1 receptor, expressed as Ki class; + also covers inhibition between 1% and 50%
T1 construct: expressed in transfected cells; host or cells: HEK-293
Protocol: Human σ1 Receptor Radioligand Assay
Transfected HEK-293 membranes (7 μg) were incubated with 5 nM of [^3H](+)-pentazocine in assay buffer containing Tris-HCl 50 mM at pH 8. NBS (non-specific binding) was measured by adding 10 μM haloperidol. The binding of the test compound was measured at either one concentration (% inhibition at 1 or 10 μM) or five different concentrations to determine affinity values (Ki). Plates were incubated at 37° C. for 120 minutes. After the incubation period, the reaction mix was then transferred to MultiScreen HTS, FC plates (Millipore), filtered and plates were washed 3 times with ice-cold 10 mM Tris-HCL (pH7.4). Filters were dried and counted at approximately 40% efficiency in a MicroBeta scintillation counter (Perkin-Elmer) using EcoScint liquid scintillation cocktail.

[1] = target: Human α2δ-1 subunit of Cav2.2 calcium channel (Homo sapiens, UniProt P54289); assay: Human α2δ-1 subunit of Cav2.2 calcium channel assay ([3H]-gabapentin binding); settings: binding to the α2δ-1 subunit of voltage-gated calcium channels, expressed as Ki class; + also covers inhibition between 1% and 50%
Protocol: Human α2δ-1 Subunit of Cav2.2 Calcium Channel Assay
Human α2δ-1 enriched membranes (2.5 μg) were incubated with 15 nM of radiolabeled [^3H]-Gabapentin in assay buffer containing Hepes-KOH 10 mM. pH 7.4. NSB (non specific binding) was measured by adding 10 μM pregabalin. The binding of the test compound was measured at either one concentration (% inhibition at 1 or 10 μM) or five different concentrations to determine affinity values (Ki). After 60 min incubation at 27° C., binding reaction was terminated by filtering through Multiscreen GF/C (Millipore) presoaked in 0.5% polyethyleneimine in Vacuum Manifold Station, followed by 3 washes with ice-cold filtration buffer containing 50 mM Tris-HCl, pH 7.4. Filter plates were dried at 60° C. for 1 h and 30 μL of scintillation cocktail were added to each well before radioactivity reading. Readings were performed in a Trilux 1450 Microbeta radioactive counter (Perkin Elmer).

T1 sequence (Q99720 whole entry): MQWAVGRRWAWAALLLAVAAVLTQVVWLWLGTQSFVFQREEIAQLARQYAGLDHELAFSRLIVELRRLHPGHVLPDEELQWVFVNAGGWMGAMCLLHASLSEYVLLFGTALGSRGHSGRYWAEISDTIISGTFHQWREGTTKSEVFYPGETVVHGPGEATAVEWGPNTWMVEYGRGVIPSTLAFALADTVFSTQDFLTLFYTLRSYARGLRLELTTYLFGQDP
Sequence of Human α2δ-1 subunit of Cav2.2 calcium channel (P54289 25-1103): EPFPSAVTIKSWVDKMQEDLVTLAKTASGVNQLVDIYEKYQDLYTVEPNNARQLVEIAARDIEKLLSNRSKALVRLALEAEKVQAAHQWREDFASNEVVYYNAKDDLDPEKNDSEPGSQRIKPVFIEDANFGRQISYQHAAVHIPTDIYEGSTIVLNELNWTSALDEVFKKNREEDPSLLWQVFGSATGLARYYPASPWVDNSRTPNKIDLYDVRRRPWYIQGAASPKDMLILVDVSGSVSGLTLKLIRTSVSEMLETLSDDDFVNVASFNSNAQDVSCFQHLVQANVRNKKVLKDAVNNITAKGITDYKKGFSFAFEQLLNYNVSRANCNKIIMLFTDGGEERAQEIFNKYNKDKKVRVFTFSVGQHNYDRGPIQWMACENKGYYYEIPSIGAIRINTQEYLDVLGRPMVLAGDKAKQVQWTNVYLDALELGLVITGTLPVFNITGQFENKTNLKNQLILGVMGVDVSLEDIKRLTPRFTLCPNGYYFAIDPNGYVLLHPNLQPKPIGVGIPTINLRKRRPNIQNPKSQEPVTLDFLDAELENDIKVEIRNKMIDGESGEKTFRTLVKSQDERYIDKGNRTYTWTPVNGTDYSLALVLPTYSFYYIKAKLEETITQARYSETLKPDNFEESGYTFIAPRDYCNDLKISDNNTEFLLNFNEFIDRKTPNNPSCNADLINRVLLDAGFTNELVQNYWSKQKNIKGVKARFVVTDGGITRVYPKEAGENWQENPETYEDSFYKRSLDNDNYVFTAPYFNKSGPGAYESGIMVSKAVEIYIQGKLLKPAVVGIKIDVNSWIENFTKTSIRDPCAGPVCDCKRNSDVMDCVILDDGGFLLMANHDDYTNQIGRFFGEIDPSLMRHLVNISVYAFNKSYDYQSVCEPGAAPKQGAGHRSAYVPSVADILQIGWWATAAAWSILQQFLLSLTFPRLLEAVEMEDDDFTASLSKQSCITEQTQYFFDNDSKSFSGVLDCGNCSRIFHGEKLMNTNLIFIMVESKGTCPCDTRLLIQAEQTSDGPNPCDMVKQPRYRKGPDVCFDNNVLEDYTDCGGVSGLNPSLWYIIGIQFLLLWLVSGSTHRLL

SMILES	Ki (Human σ1 receptor) [nM]	Ki [1] [nM]
CCCC(c1nc2nc(C(F)(F)F)ccc2c(=O)n1CC)N1CCCN(C)CC1 (stereo not drawn) [Example 190, 3-ethyl-2-(1-(4-methyl-1,4-diazepan-1-yl)butyl)-7-(trifluoromethyl)pyrido[2,3-d]pyrimidin-4(3H)-one]	> 1000	500 to 5000
CCC[C@H](c1nc2ccc(F)cc2c(=O)n1CC)N1CCN[C@H](C)CC1 [Example 235, 3-ethyl-6-fluoro-2-((R)-1-((R)-5-methyl-1,4-diazepan-1-yl)butyl)quinazolin-4(3H)-one]	> 1000	< 500
CCCC(c1nc2cnccc2c(=O)n1CC)N1CCCN(C)CC1 (stereo not drawn) [Example 17, 3-ethyl-2-(1-(4-methyl-1,4-diazepan-1-yl)butyl)pyrido[3,4-d]pyrimidin-4(3H)-one]	> 1000	< 500
CCC[C@@H](c1nc2ccc(Br)cc2c(=O)n1CC)N1CCN(C)C[C@H](C)C1 [Example 37, 6-bromo-2-((S)-1-((S)-4,6-dimethyl-1,4-diazepan-1-yl)butyl)-3-ethylquinazolin-4(3H)-one]	> 1000	> 5000
CCCC(c1nc2ncc(Br)cc2c(=O)n1CC)N1CCCNCC1 (stereo not drawn) [Example 177, 2-(1-(1,4-diazepan-1-yl)butyl)-6-bromo-3-ethylpyrido[2,3-d]pyrimidin-4(3H)-one]	> 1000	< 500
CCC[C@H](c1nc2ccc(Br)cc2c(=O)n1CC)N1CCN[C@H](C)CC1 [Example 92, 6-bromo-3-ethyl-2-((R)-1-((R)-5-methyl-1,4-diazepan-1-yl)butyl)quinazolin-4(3H)-one]	> 1000	500 to 5000
CCCC(c1nc2cc(F)c(Br)cc2c(=O)n1CC)N1CCCNCC1 (stereo not drawn) [Example 27, 2-(1-(1,4-diazepan-1-yl)butyl)-6-bromo-3-ethyl-7-fluoroquinazolin-4(3H)-one]	> 1000	< 500
CCC[C@H](c1nc2cc(Cl)c(Cl)cc2c(=O)n1CC)N1CCNC[C@@H](C)C1 [Example 110, 6,7-dichloro-3-ethyl-2-((R)-1-((R)-6-methyl-1,4-diazepan-1-yl)butyl)quinazolin-4(3H)-one]	> 1000	< 500
CCCC(c1nc2cc(C)c(Br)cc2c(=O)n1CC)N1CCCNCC1 (stereo not drawn) [Example 44, 2-(1-(1,4-diazepan-1-yl)butyl)-6-bromo-3-ethyl-7-methylquinazolin-4(3H)-one]	> 1000	< 500
CCC[C@H](c1nc2ccc(Br)cc2c(=O)n1CC)N1CCN2CCC1CC2 [Example 66, (R)-2-(1-(1,4-diazabicyclo[3.2.2]nonan-4-yl)butyl)-6-bromo-3-ethylquinazolin-4(3H)-one]	> 1000	> 5000
CCCC(c1nc2cccnc2c(=O)n1CC)N1CCCNCC1 (stereo not drawn) [Example 100, 2-(1-(1,4-diazepan-1-yl)butyl)-3-ethylpyrido[3,2-d]pyrimidin-4(3H)-one]	> 1000	> 5000
CCC[C@@H](c1nc2ccc(Cl)cc2c(=O)n1CC)N1CCN(C)C[C@@H](C)C1 [Example 74, 6-chloro-2-((S)-1-((R)-4,6-dimethyl-1,4-diazepan-1-yl)butyl)-3-ethylquinazolin-4(3H)-one]	> 1000	> 5000
CCCC(c1nc2ccc(-c3ccccc3)cc2c(=O)n1CC)N1CCCN(C)CC1 (stereo not drawn) [Example 204, 3-Ethyl-2-(1-(4-methyl-1,4-diazepan-1-yl)butyl)-6-phenylquinazolin-4(3H)-one]	> 1000	< 500
CCCC(c1nc2c(Cl)cc(F)cc2c(=O)n1CC)N1CCCNCC1 (stereo not drawn) [Example 71, 2-(1-(1,4-diazepan-1-yl)butyl)-8-chloro-3-ethyl-6-fluoroquinazolin-4(3H)-one]	> 1000	> 5000
CCCC(c1nc2cnc(OC)cc2c(=O)n1CC)N1CCCN(C)CC1 (stereo not drawn) [Example 191, 3-ethyl-6-methoxy-2-(1-(4-methyl-1,4-diazepan-1-yl)butyl)pyrido[3,4-d]pyrimidin-4(3H)-one]	> 1000	< 500

Now from value to compound:

Ki (Human σ1 receptor) [nM]	Ki [1] [nM]	SMILES
500 to 1000	500 to 5000	CCCC(c1nc2c(F)cc(Br)cc2c(=O)n1CC)N1CCCN(CC)CC1 (stereo not drawn) [Example 57, 6-bromo-3-ethyl-2-(1-(4-ethyl-1,4-diazepan-1-yl)butyl)-8-fluoroquinazolin-4(3H)-one]
< 500	500 to 5000	CCCC(c1nc2ccc(Br)cc2c(=O)n1CC)N1CCCN(CCc2ccccc2)CC1 (stereo not drawn) [Example 5, 6-bromo-3-ethyl-2-(1-(4-phenethyl-1,4-diazepan-1-yl)butyl)quinazolin-4(3H)-one]
> 1000	< 500	CCCC(c1nc2cc(C)ccc2c(=O)n1CC)N1CCCN(C)CC1 (stereo not drawn) [Example 11, 3-ethyl-7-methyl-2-(1-(4-methyl-1,4-diazepan-1-yl)butyl)quinazolin-4(3H)-one]
500 to 1000	< 500	CCC[C@H](c1nc2c(F)cc(F)cc2c(=O)n1CC)N1CCCN(C)CC1 [Example 247, (R)-3-ethyl-6,8-difluoro-2-(1-(4-methyl-1,4-diazepan-1-yl)butyl)quinazolin-4(3H)-one]
500 to 1000	> 5000	CCC[C@@H](c1nc2ccc(Cl)cc2c(=O)n1C)N1CCCN[C@H](C)C1 [Example 150, 6-chloro-3-methyl-2-((S)-1-((R)-3-methyl-1,4-diazepan-1-yl)butyl)quinazolin-4(3H)-one]
500 to 1000	< 500	CCC[C@H](c1nc2ccc(Br)cc2c(=O)n1CC)N1CCN(C)C[C@H](C)C1 [Example 36, 6-bromo-2-((R)-1-((S)-4,6-dimethyl-1,4-diazepan-1-yl)butyl)-3-ethylquinazolin-4(3H)-one]
< 500	< 500	CCC[C@H](c1nc2ccc(F)cc2c(=O)n1CCC)N1CCCN(CC)CC1 [Example 212, (R)-2-(1-(4-ethyl-1,4-diazepan-1-yl)butyl)-6-fluoro-3-propylquinazolin-4(3H)-one]
< 500	< 500	CCCC(c1nc2cc(Br)c(F)cc2c(=O)n1CC)N1CCCN(C)CC1 (stereo not drawn) [Example 33, 7-bromo-3-ethyl-6-fluoro-2-(1-(4-methyl-1,4-diazepan-1-yl)butyl)quinazolin-4(3H)-one]
< 500	500 to 5000	CCC[C@H](c1nc2c(F)cc(F)cc2c(=O)n1CC)N1CCN[C@@H](C)CC1 [Example 251, 3-ethyl-6,8-difluoro-2-((R)-1-((S)-5-methyl-1,4-diazepan-1-yl)butyl)quinazolin-4(3H)-one]
< 500	< 500	CCC[C@H](c1nc2ccc(Cl)cc2c(=O)n1CCC)N1CCCN(C)CC1 [Example 159, (R)-6-Chloro-2-(1-(4-methyl-1,4-diazepan-1-yl)butyl)-3-propylquinazolin-4(3H)-one]
500 to 1000	> 5000	CCC[C@@H](c1nc2cc(F)c(Cl)cc2c(=O)n1CC)N1CCN(C)C[C@@H](C)C1 [Example 138, 6-chloro-2-((S)-1-((R)-4,6-dimethyl-1,4-diazepan-1-yl)butyl)-3-ethyl-7-fluoroquinazolin-4 (3H)-one]
500 to 1000	> 5000	CCC[C@@H](c1nc2cc(F)c(Br)cc2c(=O)n1CC)N1CCCN(C)CC1 [Example 156, (S)-6-bromo-3-ethyl-7-fluoro-2-(1-(4-methyl-1,4-diazepan-1-yl)butyl)quinazolin-4(3H)-one]
500 to 1000	< 500	CCCC(c1nc2c(F)cc(Br)cc2c(=O)n1CC)N1CCCN(C)CC1 (stereo not drawn) [Example 40, 6-bromo-3-ethyl-8-fluoro-2-(1-(4-methyl-1,4-diazepan-1-yl)butyl)quinazolin-4(3H)-one]
< 500	< 500	CCCC(c1nc2cc(Cl)c(Cl)cc2c(=O)n1CC)N1CCCN(C)CC1 (stereo not drawn) [Example 87, 6,7-dichloro-3-ethyl-2-(1-(4-methyl-1,4-diazepan-1-yl)butyl)quinazolin-4(3H)-one]
500 to 1000	< 500	CCC[C@H](c1nc2ccc(Cl)cc2c(=O)n1CC)N1CCN(C)C[C@@H](C)C1 [Example 76, 6-chloro-2-((R)-1-((R)-4,6-dimethyl-1,4-diazepan-1-yl)butyl)-3-ethylquinazolin-4(3H)-one]
< 500	500 to 5000	CCC[C@H](c1nc2ccc(F)cc2c(=O)n1C)N1CCN[C@@H](C)CC1 [Example 256, 6-fluoro-3-methyl-2-((R)-1-((S)-5-methyl-1,4-diazepan-1-yl)butyl)quinazolin-4(3H)-one]
< 500	< 500	CCC[C@H](c1nc2cc(F)c(F)cc2c(=O)n1CC)N1CCCN(C)CC1 [Example 232, (R)-3-ethyl-6,7-difluoro-2-(1-(4-methyl-1,4-diazepan-1-yl)butyl)quinazolin-4(3H)-one]
500 to 1000	> 5000	CCC[C@H](c1nc2ccc(F)cc2c(=O)n1CC)N1CCCNC(C)(C)C1 [Example 253]
